Assay results: patent US5660842A, “Inhibition of helicobacter” (Bristol-Myers Squibb Company, priority 1995, dated 1997)
In brackets after ≈: the same amount, converted by molar mass. Where two headings read alike, the source gives them in different places.

Columns and labels:
[1] = system: H. pylori; details: reported in literature; cited from earlier work
[2] = system: Helicobacter pylori; test: Viability of H. pylori after 1 hour in prototype nutritional compositions containing FFA or MG (Example 3, Table 6); assay type: cell-based, Helicobacter pylori (ATCC 43629); details: for Change in viable cell number: 1 hour; for Reductions in viability of H. pylori: 10 mM for 1 hour
[3] = system: Helicobacter pylori; test: Bactericidal activity of MG and FFA of varying chain length (Example 4, FIG. 1); assay type: cell-based, Helicobacter pylori HP-4 (ATCC 43629); details: FFA tested C4:0 to C17:0; 1 hour
[4] = system: Helicobacter pylori; assay type: cell-based, Helicobacter pylori (HP-2, HP-4, HP-5); details: for Frequency of resistance / Resistant variants of H. pylori: concentrations as low as two times the MIC; for Frequency of resistant mutants (number of spontaneous mutants): ~1 × 10^8 CFU
[5] = system: Helicobacter pylori; test: Minimal inhibitory concentration (MIC) for H. pylori (Example 5); assay type: cell-based
[6] = system: Helicobacter pylori; test: Viability of H. pylori after 1 hour with FFA or MG in Brucella broth (plate count, Example 1, Table 1); assay type: cell-based; details: for Reduction in number of viable H. pylori cells (CFU/mL): 1 mM, 1 hour, 37° C.; for Reductions in cell numbers: test strains HP-2, HP-4, HP-5, 1 hour incubation
[7] = system: Helicobacter felis; test: H. felis infected mouse model (urease activity and histology of gastric tissue); assay type: in vivo, Helicobacter felis in adult mice
Excerpt: The restricted host range of Helicobacter pylori has hampered the development of a widely accepted animal model of H. pylori infection. […] Other animal models of Helicobacter infection have been described based on bacteria similar to H. pylori that have been found in the gastric mucosa of various animals such as the ferret, cat, and monkey. One such model involves the inoculation of adult mice with Heicobacter felis (Fox, J. G., J. C. Murphy, N. S. Taylor, A. Lee, Z. Kabob, and L. Pappo., Local and systemic immune responses in murine Helicobacter felis active chronic gastritis., Infect. Immun. 1993; 61:2309-2315; Dick-Hegedus, E., and A. Lee. Use of a mouse model to examine anti-Helicobacter pylori agents., Scand. J. Gastroenterol. 1991;26:909-915). Preliminary studies were conducted to evaluate the anti-infective activity of MG and FFA against Helicobacter infection in vivo using the H. felis infected mouse model. […] Two weeks later mice were randomized into treatment groups and maintained on liquid diet alone or the same diet supplemented with C10:0 MG or C12:0 MG at a level of 1,5, or 10 mM. Gastric colonization with H. felis in mice was determined 1 and 3 weeks later by evaluation of urease activity ([…]. Barody, A. Gal, and A. Lee., Campylobacter pyloridis gastritis I: Detection of urease as a marker of bacterial colonization and gastritis. Am. J. Gastroenterol. 1987; 82: 292-296) and histopathological assessment of bacterial infection in gastric tissues.

[8] = Sustacal (Formulation I), 10 mM
[9] = Ultracal (Formulation III), 5 mM
[10] = Ultracal (Formulation III), 10 mM
[11] = Nutrament (Formulation II), 5 mM
[12] = Nutrament (Formulation II), 10 mM

Row | Structure (SMILES) | Inhibitory effect on H. pylori [1] | Change in viable cell number ([2]; Sustacal (Formulation I), 5 mM) [LOG CFU/mL] | Change in viable cell number [2, 8] [LOG CFU/mL] | Change in viable cell number [2, 9] [LOG CFU/mL] | Change in viable cell number [2, 10] [LOG CFU/mL] | Frequency of resistance [4] | Resistant variants of H. pylori [4] | Frequency of resistant mutants (number of spontaneous mutants) ([4]; strain 43579, 2 × MIC) | Frequency of resistant mutants (number of spontaneous mutants) ([4]; strain 43579, 5 × MIC) | Frequency of resistant mutants (number of spontaneous mutants) ([4]; strain 43579, 10 × MIC) | Frequency of resistant mutants (number of spontaneous mutants) ([4]; strain 49503, 2 × MIC) | Frequency of resistant mutants (number of spontaneous mutants) ([4]; strain 49503, 5 × MIC) | Frequency of resistant mutants (number of spontaneous mutants) ([4]; strain 49503, 10 × MIC) | Reductions in viability of H. pylori [2] [fold] | Change in viable cell number [2, 11] [LOG CFU/mL] | Change in viable cell number [2, 12] [LOG CFU/mL] | Reduction in number of viable H. pylori cells (CFU/mL) ([6]; ATCC #43579) | Reduction in number of viable H. pylori cells (CFU/mL) ([6]; ATCC #43629) | Reduction in number of viable H. pylori cells (CFU/mL) ([6]; ATCC #49503) | Reductions in cell numbers [6] | other results
1 | CCCCC/C=C\C/C=C\C/C=C\C/C=C\CCCC(=O)O [arachidonic acid] | inhibitory effect on H. pylori |  |  |  |  |  |  |  |  |  |  |  |  |  |  |  |  |  |  |  | 
2 | CC/C=C\C/C=C\C/C=C\CCCCCCCC(=O)O [ω-3 linolenic acid] | inhibitory effect on H. pylori |  |  |  |  |  |  |  |  |  |  |  |  |  |  |  |  |  |  |  | 
3 | CCCCCCCCCCCC(=O)O [Lauric Acid, lauric acid] |  | 0.00 | 0.05 | 0.33 | -1.05 | < 1×10^-8 | no resistant variants of H. pylori were found | < 1 | < 1 | < 1 | < 1 | < 1 | < 1 |  |  |  |  |  |  |  | Change in viable cell number ([2]; Nutrament (Formulation II), 20 mM): -0.42 LOG CFU/mL; Change in viable cell number ([2]; Sustacal (Formulation I), 20 mM): -3.33 LOG CFU/mL; Change in viable cell number ([2]; Ultracal (Formulation III), 20 mM): -3.96 LOG CFU/mL; Inhibition in nutritional compositions ([2]; lower levels than 20 mM): not inhibitory; Bactericidal activity for H. pylori [3]: showed bactericidal activity; Frequency of resistant mutants (number of spontaneous mutants) ([4]; strain 43529 (so in the source), 2 × MIC): < 1; Frequency of resistant mutants (number of spontaneous mutants) ([4]; strain 43529 (so in the source), 5 × MIC): < 1; Frequency of resistant mutants (number of spontaneous mutants) ([4]; strain 43529 (so in the source), 10 × MIC): < 1; MIC ([5]; Helicobacter pylori, Table 7, read-out: MIC): 50 µg/mL (≈ 250 µM); MIC ([5]; Helicobacter pylori, preliminary studies, read-out: MIC): ~50 µg/mL (≈ 250 µM)
4 | CCCCCCCCCCCC(=O)OCC(O)CO (centres unmarked) [Monolaurin, monolaurin] |  | -3.41 | -3.77 | -3.04 | -4.40 | < 1×10^-8 | no resistant variants of H. pylori were found | < 1 | < 1 | < 1 | < 1 | < 1 | < 1 | ≥ 1000 | -4.23 | -3.87 | > 100,000 fold | > 50,000 fold | > 30,000 fold | ≥ 10,000 fold | Frequency of resistant mutants (number of spontaneous mutants) ([4]; strain 43629, 2 × MIC): < 1; Frequency of resistant mutants (number of spontaneous mutants) ([4]; strain 43629, 5 × MIC): < 1; Frequency of resistant mutants (number of spontaneous mutants) ([4]; strain 43629, 10 × MIC): < 1; MIC ([5]; Table 7): 15.0 µg/mL (≈ 54.7 µM); MIC ([5]; preliminary studies): ~15 µg/mL (≈ 54.7 µM)
5 | CCCCCCCCCC(=O)OCC(O)CO (centres unmarked) [Monocaprin, monocaprin] |  | -3.78 | -3.91 | -4.40 | -4.40 | < 1×10^-8 | no resistant variants of H. pylori were found | < 1 | < 1 | < 1 | < 1 | < 1 | < 1 | ≥ 1000 | -4.00 | -4.14 | > 100,000 fold | > 60,000 fold | > 30,000 fold | ≥ 10,000 fold | Histology score ([7]; 10 mM in diet, three weeks): remained lower; Numbers of urease positive and histology positive mice ([7]; diet, three weeks after initiation of treatment): comparable to the number observed in the infected control group (~80-100%); Number of urease and histology positive mice ([7]; liquid diet with MG at 1, 5 or 10 mM, 1 week of treatment): dose-related reductions in the number of urease and histology positive mice; Reduction in H. felis infection ([7]; second study, daily intragastric gavage 1.4 or 2.8 mg/day, 1 or 3 weeks): no significant reduction in H. felis infection; Level of infection (histology score) ([7]; urease positive mice vs control, diet, 1 week): Lower levels of infection; Frequency of resistant mutants (number of spontaneous mutants) ([4]; strain 43629, 2 × MIC): < 1; Frequency of resistant mutants (number of spontaneous mutants) ([4]; strain 43629, 5 × MIC): < 1; Frequency of resistant mutants (number of spontaneous mutants) ([4]; strain 43629, 10 × MIC): < 1; MIC ([5]; Table 7): 60.0 µg/mL (≈ 244 µM); MIC ([5]; preliminary studies): approximately 60 mg/L
